Reference: patent US12589085B2, “Use of diaminoguanidine derivative and feed composition thereof in preparation of veterinary drug” (priority 2019, dated 2026)
Where two headings read alike, the source gives them in different places.

Legend:
sperm = conditions: cyclophosphamide 40 mg/kg once a day 5 days
Experimental: Experimental animals: 60 clean-grade healthy male ICR mice having the average weight of 18-20 g, purchased from the Comparative Medicine Center of Yangzhou University.
Reagents: Test agent, Compound 2, provided by Guangzhou Insighter Biotechnology Co., Ltd., was prepared into a suspension of the required concentration with 1.0% sodium carboxymethyl cellulose before use; the mutagenic positive control article of cyclophosphamide with the content of 99.00%; other reagents include sodium chloride, methanol, and eosin, all of analytical grade; self-prepared physiological saline; self-prepared eosin aqueous solution (2%).
The test article, Compound 2 was diluted with 1.0% sodium carboxymethyl cellulose as a solvent, and it was given by oral in different concentrations and the same volume. There is also a positive control and a negative (solvent) control. The cyclophosphamide was selected as the positive control (40 mg/kg).
Grouping of experimental animals: 60 healthy male mice were individually weighed, labeled and numbered, and they were divided into 5 groups with 12 mice in each group using a completely random method. It was ensured that 10 animals in each group survive for sampling and film making after administration.
Administration: The administration method is carried out according to GB15193.7-2003. The test group, the negative control and the positive control are all given the test article by oral once a day for 5 consecutive days. The weight of the mouse for each administration was weighed, and the volume of the test article that each mouse should administer was calculated according to the requirements of the mouse 0.2 mL/10 g b.w.
Sampling and sample preparation: The mice were sacrificed by cervical dislocation on the Day 35 after the first administration, and sampling and film making were performed. 10 mice were sampled in each dose group. The abdominal cavity was cut, the epididymis on both sides were separated and extracted, and put in a petri dish containing 2 mL of normal saline; The mice were longitudinally cut with ophthalmological scissors for 2 times, the normal saline in it was pipetted with a straw for several times, and let stand for 3 min; the tissue fragments were filtered with a 4-layer of lens cleaning paper, 1 drop of the filtrate was drawn onto the glass slide, the slide was pushed with 4 slides per mouse; the slide in the air dried naturally, and fixed with methanol for 10 minutes, and dried; stained with 2% eosin for 1 h, the dye solution was gently washed off with water, and it was dried naturally before microscopic examination.
Data collation and analysis: The number of normal sperm, the number of abnormal sperm and the number of various types of abnormal sperm were read and counted in each dose group of mice. The sperm abnormality rate (%) of mice in each dose group and the percentage (%) of various types of abnormal sperm were calculated, and the standard deviation of the sperm abnormality rate of mice was also calculated in each dose group. Calculation as follows:
The sperm abnormality rate of mice in each dose group was statistically compared with the sperm abnormality rate of mice in the negative (solvent) control. The experimental data was processed by SPSS 11.0 statistical software, and the analysis results were expressed as x±SD, and the incidence of sperm abnormalities was statistically processed according to the X^2 (α=0.05).
If the dose of the test group has caused the animal to die, while the sperm abnormality has not increased, the result can be judged to be negative.

[1] = tested on: bone marrow cells of mice; conditions: cyclophosphamide 40 mg/kg intraperitoneal, n = 5
Experimental: Experimental animals: 60 clean and healthy ICR mice have the average weight of 18-20 g, half female and half male, purchased from the Comparative Medicine Center of Yangzhou University. […]
Specimen preparation: 6 hours after the second administration of the test article, […] and 5 […] in each group were sacrificed by cervical dislocation. […] The fixed smear is stained with Giemsa application solution for 15-30 min, rinsed with distilled water, dried, and gets ready for inspection.
The film was read by double-blind method, the number of polychromatic red blood cells (PCE) of each mouse was recorded in each group, including the number of micronucleus PCE cells, and the number of mature red blood cells (RBC), and the like. The number of polychromatic red blood cells (PCE) was calculated, including the number of micronucleus PCE cells and the number of mature red blood cells (RBC) in each test group of male and female mice respectively, and the results were listed.
The experimental data is processed by SPSS 11.0 statistical software, and the analysis result is expressed as x±SD, and the incidence of micronucleus is statistically processed according to the X^2 test (α=0.05).

In the case of O=P1(N(CCCl)CCCl)NCCCO1 (stereo not drawn) [Positive control, cyclophosphamide, reference compound], the “Total number of abnormal sperm” value (sperm; Day 35, 10000 sperm) is reported as 559, the “abnormal sperm: Amorphous” value (sperm; Day 35, 10000 sperm) is reported as 248 and the “abnormal sperm: Banana shape” value (sperm; Day 35, 10000 sperm) is reported as 91. The “abnormal sperm: Double head” value (sperm; Day 35, 10000 sperm) was 13, the “abnormal sperm: Double tail” value (sperm; Day 35, 10000 sperm) was 25 and the “abnormal sperm: Fat head” value (sperm; Day 35, 10000 sperm) was 21. For the same compound, the “abnormal sperm: Fold tail” value (sperm; Day 35, 10000 sperm) was 12, the “abnormal sperm: No hook” value (sperm; Day 35, 10000 sperm) was 149 and the “Number of Abnormal sperm (x ± SD)” value (sperm; Day 35, n = 10) was 55.90. The Sperm deformity (sperm; Day 35, n = 10) was 5.26 ± 0.18%, the “PCE micronucleus rate” value ([1]; female mice) was 15.00 ± 2.42 ‰ and the PCE micronucleus rate ([1]; male mice) was 15.20 ± 2.37 ‰.
